According to patent publication US10251860B2, “Compounds for bone healing” (University of Pittsburgh—Of the Commonwealth System of …, priority 2015, dated 2019):
Blank lines part the entries; values can stand above or below the molecule they belong to.

Legend:
[1] = Experimental: (§1) Eppendorf vials (1.5 mL size) were charged with model compounds in excess. […] The vials were briefly vortexed and equilibrated in an end-over-end rotator at 30.0° C. for 20 hours.
as §1

Brine shrimp = Brine shrimp toxicity assay; format: in vivo
Experimental: General procedure for brine shrimp toxicity assays. Sample preparation. Stock solutions of 3 were prepared by dissolving 3 (50.0 mg) in 5.0 HPLC grade water (5.0 mL), (solution A) and 3 (2.50 g) in HPLC grade water (10.0 mL) (solution B). Stock solutions of DMSO were prepared by diluting DMSO (45 μL) with HPLC grade water (5.0 mL) (solution C) and DMSO (2.27 mL) with HPLC grade water (10.0 mL) (solution D).
In each case, 5 replicates were performed. Each replicate was performed in a 2 dram vial marked at the 4 and 5 mL volume points. To each vial was added artificial sea water (3 mL) followed by the appropriate volume of stock solution. For set 1 (1.0 mg/mL), solution A (0.500 mL) or solution C (0.500 mL) was added. For set 2 (5.0 mg/mL), solution B (0.100 mL) or solution D (0.100 mL) was added to each vial. For set 3 (20.0 mg/mL), solution B (0.400 mL) or solution D (0.400 mL) was added to each vial. For set 4 (50.0 mg/mL), solution B (1.00 mL) or solution D (1.00 mL) was added to each vial. Controls containing HPLC grade water (0.100 mL, 0.400 mL, and 1.00 mL) were prepared in the same manner, and five replicates of each control were prepared.
Brine shrimp eggs (San Francisco Bay Brand) were hatched in a commercial salt mixture (Instant Ocean). Constant aeration was provided using a pump and airstone, and illumination was maintained using a desk lamp. The shrimp were collected in a separate tank after 48 hours and used within 3-4 hours of collection.
Brine shrimp were added to each vial using a plastic transfer pipet. After the shrimp were transferred, artificial sea-water was added until the volume reached the 5-mL mark. One drop of a yeast suspension prepared by suspending 11 mg yeast in sea-water (20 mL) was added to each vial. The shrimp were counted at t=24 hours. Another drop of freshly prepared yeast solution (6 mg in 10 mL sea water) was added, the vials were maintained under illumination, and shrimp were counted at t=48 hours.

[2] = test system: breast cancer cell line (MDA-MB-231); format: cell-based
Text: (§2) The cellular toxicity of sulfoxide 3 was further determined for a breast cancer cell line (MDA-MB-231) and a liver cell line (HepG2).

liver cell line (HepG2) = format: cell-based
Text: as §2

[3] = Water absorption of compound storage media (Karl Fischer titration); format: physicochemical; conditions: for Water content at t = 7 d: room temperature, pierced septum
Experimental: General procedure for calculation of water absorption. Oven-dried flasks capped with septa were cooled under a N2 atmosphere and charged with a volume of the appropriate solutions (DMSO, 3.0 mL; NMP, 600 μL; 25% 3/NMP, 600 μL). The water content was determined by Karl Fischer titration using about 100 μL aliquots (t=0 measurement). Each septum was pierced with a 1.5 inch 18 gauge needle and left to stand at room temperature for 7 days. The water content was measured at the end of this period (t=7 d measurement) by Karl Fischer titration. All measurements were made in duplicate. Results and Discussion.

[4] = reported value; cited from earlier work

effect of addition of sulfoxide 3 on aqueous solubility [1]: increased the aqueous solubility
Compound: COc1cc(/C=C/C(=O)CC(=O)/C=C/c2ccc(O)c(OC)c2)ccc1O [Compound 7, curcumin]

effect of addition of sulfoxide 3 on aqueous solubility [1]: increased the aqueous solubility
Compound: COC1=CC(=O)C[C@@H](C)[C@]12Oc1c(Cl)c(OC)cc(OC)c1C2=O [Compound 11, griseofulvin]

GI50 [2]: ~800 mM
GI50 (liver cell line (HepG2)): ~800 mM
Water content at t = 0 ([3]; first vessel): 160 ppm
Water content at t = 7 d ([3]; first vessel): 1080 ppm
Water content at t = 0 ([3]; second vessel): 170 ppm
Water content at t = 7 d ([3]; second vessel): 1130 ppm
Compound: C[S+](C)[O-] [DMSO, dimethyl sulfoxide, reference compound]
% Mortality after 24 h (Brine shrimp; 1 mg/mL): 0%
% Mortality after 48 h (Brine shrimp; 1 mg/mL): 0-10%
% Mortality after 24 h (Brine shrimp; 5 mg/mL): 0%
% Mortality after 48 h (Brine shrimp; 5 mg/mL): 0-6%
% Mortality after 24 h (Brine shrimp; 20 mg/mL): 0%
% Mortality after 48 h (Brine shrimp; 20 mg/mL): 0%
% Mortality after 24 h (Brine shrimp; 50 mg/mL): 0%
% Mortality after 48 h (Brine shrimp; 50 mg/mL): 15%
mortality after 24 h (Brine shrimp; same concentrations (1-50 mg/mL)): no mortality
reported log P [4]: −1.3

Compound: COC(=O)Nc1nc2ccccc2[nH]1 [Compound 10, carbendazim]
effect of addition of sulfoxide 3 on aqueous solubility [1]: increased the aqueous solubility

Water content at t = 0 ([3]; first vessel): 150 ppm
Water content at t = 7 d ([3]; first vessel): 12,090 ppm
Water content at t = 0 ([3]; second vessel): 130 ppm
Water content at t = 7 d ([3]; second vessel): 17,000 ppm
Compound: CN1CCCC1=O [NMP, N-methyl-2-pyrrolidone]
